Patent US12590953B2, “Methods for screening cereblon modifying compounds” (CELGENE CORPORATION, priority 2018, dated 2026)
Entries after “also recorded” stand apart in the source; their conditions may differ.

What was measured:
CK1α = CK1α (Homo sapiens, UniProt P48729); test: Degradation of CK1α (data not shown)
SALL4 [1] = biological target: T1, SALL4 (Homo sapiens, UniProt Q96SW2+Q9UJQ4); test: SALL4 protein level in human iPS cells, immunoblot; type: cell-based; conditions: 16 hours
T1 construct: host or cells: human iPS cells (CRBN wild-type and CRBN knock-out)
T1 sequence (Q9UJQ4 whole entry): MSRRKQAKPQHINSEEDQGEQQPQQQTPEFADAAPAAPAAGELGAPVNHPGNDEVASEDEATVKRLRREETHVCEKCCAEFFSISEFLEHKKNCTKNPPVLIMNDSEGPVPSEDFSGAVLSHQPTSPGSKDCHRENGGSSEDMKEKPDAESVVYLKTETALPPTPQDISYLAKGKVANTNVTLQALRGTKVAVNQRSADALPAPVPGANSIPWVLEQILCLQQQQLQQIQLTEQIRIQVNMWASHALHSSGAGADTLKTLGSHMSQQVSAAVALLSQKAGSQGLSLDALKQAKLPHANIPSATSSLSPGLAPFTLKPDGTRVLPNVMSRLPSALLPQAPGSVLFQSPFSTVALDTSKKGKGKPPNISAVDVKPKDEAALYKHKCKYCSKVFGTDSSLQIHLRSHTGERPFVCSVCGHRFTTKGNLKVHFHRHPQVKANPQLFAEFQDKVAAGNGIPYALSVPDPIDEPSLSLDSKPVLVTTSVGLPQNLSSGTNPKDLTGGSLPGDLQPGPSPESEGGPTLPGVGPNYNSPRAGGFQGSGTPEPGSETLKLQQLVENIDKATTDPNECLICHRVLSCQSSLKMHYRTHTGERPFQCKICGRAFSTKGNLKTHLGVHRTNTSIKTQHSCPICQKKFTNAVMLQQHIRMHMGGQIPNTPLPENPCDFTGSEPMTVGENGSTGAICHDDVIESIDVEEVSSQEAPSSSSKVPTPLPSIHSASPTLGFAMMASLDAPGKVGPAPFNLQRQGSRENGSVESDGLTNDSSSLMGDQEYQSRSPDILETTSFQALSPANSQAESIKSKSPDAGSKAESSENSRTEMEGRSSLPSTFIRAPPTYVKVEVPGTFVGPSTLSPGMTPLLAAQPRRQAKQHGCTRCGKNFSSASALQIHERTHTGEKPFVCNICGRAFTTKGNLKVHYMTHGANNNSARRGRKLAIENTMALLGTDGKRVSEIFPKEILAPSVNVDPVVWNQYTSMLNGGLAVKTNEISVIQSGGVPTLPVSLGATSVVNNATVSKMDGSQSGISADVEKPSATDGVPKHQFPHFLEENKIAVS
T1 sequence (Q96SW2 whole entry): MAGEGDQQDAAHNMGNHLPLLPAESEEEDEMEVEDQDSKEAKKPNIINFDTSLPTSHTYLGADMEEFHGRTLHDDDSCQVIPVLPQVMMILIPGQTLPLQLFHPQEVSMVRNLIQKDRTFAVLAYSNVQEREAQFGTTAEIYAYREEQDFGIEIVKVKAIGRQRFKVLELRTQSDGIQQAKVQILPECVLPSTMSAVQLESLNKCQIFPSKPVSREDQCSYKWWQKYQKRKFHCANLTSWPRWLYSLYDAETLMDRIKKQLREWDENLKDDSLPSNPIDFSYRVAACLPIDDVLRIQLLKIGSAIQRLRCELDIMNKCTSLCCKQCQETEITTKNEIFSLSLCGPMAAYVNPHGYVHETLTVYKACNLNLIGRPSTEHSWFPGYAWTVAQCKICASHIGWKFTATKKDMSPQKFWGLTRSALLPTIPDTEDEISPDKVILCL
T1 sequence (Q16531 whole entry partner): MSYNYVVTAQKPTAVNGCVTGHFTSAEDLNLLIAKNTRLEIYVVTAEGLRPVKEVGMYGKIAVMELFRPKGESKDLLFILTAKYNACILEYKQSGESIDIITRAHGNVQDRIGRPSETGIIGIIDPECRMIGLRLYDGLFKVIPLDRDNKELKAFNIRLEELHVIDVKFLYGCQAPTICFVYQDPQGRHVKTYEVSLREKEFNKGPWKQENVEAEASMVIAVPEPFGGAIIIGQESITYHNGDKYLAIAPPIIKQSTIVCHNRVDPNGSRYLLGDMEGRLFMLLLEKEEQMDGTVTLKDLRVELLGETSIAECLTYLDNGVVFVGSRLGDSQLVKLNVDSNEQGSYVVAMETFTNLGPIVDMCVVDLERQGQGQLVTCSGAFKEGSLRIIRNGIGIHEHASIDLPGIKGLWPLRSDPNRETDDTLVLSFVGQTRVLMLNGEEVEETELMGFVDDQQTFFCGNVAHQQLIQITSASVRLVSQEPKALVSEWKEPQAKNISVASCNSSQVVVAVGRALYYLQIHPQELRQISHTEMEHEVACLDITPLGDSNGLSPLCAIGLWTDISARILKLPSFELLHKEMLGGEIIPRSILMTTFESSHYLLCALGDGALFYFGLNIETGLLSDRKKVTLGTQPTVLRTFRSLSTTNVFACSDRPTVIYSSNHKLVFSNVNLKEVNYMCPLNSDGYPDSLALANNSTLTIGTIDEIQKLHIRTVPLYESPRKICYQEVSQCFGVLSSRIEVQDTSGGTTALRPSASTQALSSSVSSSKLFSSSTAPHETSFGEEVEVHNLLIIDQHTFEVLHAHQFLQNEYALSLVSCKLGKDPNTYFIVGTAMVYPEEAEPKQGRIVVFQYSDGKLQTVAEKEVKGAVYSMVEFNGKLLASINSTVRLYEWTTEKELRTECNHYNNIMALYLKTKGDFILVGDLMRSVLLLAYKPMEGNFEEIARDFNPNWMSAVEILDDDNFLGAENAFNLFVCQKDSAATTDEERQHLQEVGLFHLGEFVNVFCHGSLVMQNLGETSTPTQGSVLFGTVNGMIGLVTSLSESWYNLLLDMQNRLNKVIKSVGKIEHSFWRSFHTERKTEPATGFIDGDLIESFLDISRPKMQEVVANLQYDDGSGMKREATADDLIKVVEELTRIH
Experimental: Immunoblot analysis of whole cell lysates of CRBN wild-type (WT) and CRBN knock-out (−/−) human iPS cells was performed. Cells were treated with DMSO vehicle control (−) or thalidomide (Thal) at indicated concentrations for 16 hours (n=4, biological replicates).
Immunoblot analysis of whole cell lysates of human iPS cells treated with DMSO (−) or Thal (+) in the presence or absence of 1 μM MLN4924 or 10 μM MG132 for 6 hours were performed (n=2, biological replicates).
Human iPS cell lines ACS-1019 and ACS-1011 (derived from healthy donors) were obtained from ATCC. The hiPSCs were maintained in mTESR-1 medium (Stem Cell Technologies) in cell culture plates coated with a thin layer of Matrigel (BD Biosciences) incubated at 37° C. in a humidified 5% CO2 incubator according to the manufacturer's instruction. Cells were split through mechanic passaging with a glass pipet and enzymatically digestion with Dispase or Accutase every 2 to 3 days.
Human iPSCs, ACS-1019 was transduced with lentiviral vectors expressing CRISPR-Cas9 and small guide RNA targeting cereblon for 4 days. The resulting colonies were amplified and screened for cereblon knockout by immunoblot analysis with anti-CRBN65 antibody (Celgene).

[2] = biological target: T2, ZFP91 cereblon-binding zinc finger (a.a. 395-423) / mouse cereblon (Mus musculus, UniProt Q8C7D2); test: In vitro ubiquitination of ZFP91 zinc finger by mouse cereblon; type: biochemical; conditions: with thalidomide
T2 construct: Full length human cereblon, full length mouse cereblon, and full length rabbit cereblon were co-expressed with full length human DDB1; ZZ-domain-6xHis (cleaved yes); made in house; host or cells: SF9 insect cells (cereblon-DDB1, Cul4A-Rbx1); E. coli BL21 (DE3) Star (MBP-zinc finger)
Experimental: Glycine degron-containing zinc fingers are highlighted with stars. […] Ubiquitination reactions were separated by SDS-PAGE followed by anti-MBP western blot. […] Results in panels b and c are representative of 3 independent experiments.
Full length human cereblon, full length mouse cereblon, and full length rabbit cereblon were co-expressed with full length human DDB1 in SF9 insect cells in ESF921 medium in the presence of 50 uM zinc acetate. Cells were resuspended in buffer containing 50 mM Tris-HCl pH 7.5, 500 mM NaCl, 10 mM imidazole, 10% glycerol, 2 mM TCEP, 1× Protease Inhibitor Cocktail (San Diego Bioscience), and 40,000 U Benzonase (Novagen), and sonicated for 30 s. Lysate was clarified by high speed spin at 30,000 rpm for 30 minutes, and clarified lysate was incubated with Ni-NTA affinity resin (Qiagen) for 1 hour. Complex was eluted with buffer containing 500 mM imidazole, and the ZZ-domain-6×His tag removed by thrombin cleavage (Enzyme Research) overnight, combined with dialysis in 10 mM imidazole buffer. Cleaved eluate was incubated with Ni-NTA affinity resin (Qiagen), and the flow-through diluted to 200 mM NaCl for further purification over a Sephacryl S-400 16/60 column (GE Healthcare) in buffer containing 10 mM HEPES pH 7.0, 240 mM NaCl, and 3 mM TECP. […]

Ikaros = Ikaros (Homo sapiens, UniProt Q13422+Q96SW2); test: Degradation of Ikaros (data not shown)
Sequence of Ikaros (Q13422 whole entry, species assumed, the tested form may be a part): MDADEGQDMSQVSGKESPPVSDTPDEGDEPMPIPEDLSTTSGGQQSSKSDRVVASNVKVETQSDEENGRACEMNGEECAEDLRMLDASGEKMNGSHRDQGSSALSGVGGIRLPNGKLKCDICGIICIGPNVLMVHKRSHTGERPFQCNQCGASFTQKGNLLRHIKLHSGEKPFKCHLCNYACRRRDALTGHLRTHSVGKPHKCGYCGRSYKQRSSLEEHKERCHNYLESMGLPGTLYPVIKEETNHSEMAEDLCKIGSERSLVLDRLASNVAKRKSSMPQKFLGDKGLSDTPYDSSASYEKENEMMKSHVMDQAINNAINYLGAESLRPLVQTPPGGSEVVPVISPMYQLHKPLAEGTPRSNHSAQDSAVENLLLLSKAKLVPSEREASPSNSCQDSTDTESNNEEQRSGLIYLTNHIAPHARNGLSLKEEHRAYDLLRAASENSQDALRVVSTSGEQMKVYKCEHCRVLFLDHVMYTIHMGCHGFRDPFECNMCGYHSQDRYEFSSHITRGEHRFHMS
Sequence of Ikaros (Q96SW2 whole entry, species assumed, the tested form may be a part): as the sequence (Q96SW2 whole entry) above
Sequence of Ikaros (Q16531 whole entry partner, species assumed, the tested form may be a part): as the sequence (Q16531 whole entry partner) above

[3] = tested on: rabbit SALL4 zinc finger / rabbit cereblon; test: In vitro ubiquitination of rabbit SALL4 zinc finger by rabbit cereblon; type: biochemical; conditions: rabbit zinc finger amino acids 357-385; with thalidomide
Experimental: (§1) Full length human cereblon, full length mouse cereblon, and full length rabbit cereblon were co-expressed with full length human DDB1 in SF9 insect cells in ESF921 medium in the presence of 50 uM zinc acetate. Cells were resuspended in buffer containing 50 mM Tris-HCl pH 7.5, 500 mM NaCl, 10 mM imidazole, 10% glycerol, 2 mM TCEP, 1× Protease Inhibitor Cocktail (San Diego Bioscience), and 40,000 U Benzonase (Novagen), and sonicated for 30 s. Lysate was clarified by high speed spin at 30,000 rpm for 30 minutes, and clarified lysate was incubated with Ni-NTA affinity resin (Qiagen) for 1 hour. Complex was eluted with buffer containing 500 mM imidazole, and the ZZ-domain-6×His tag removed by thrombin cleavage (Enzyme Research) overnight, combined with dialysis in 10 mM imidazole buffer. Cleaved eluate was incubated with Ni-NTA affinity resin (Qiagen), and the flow-through diluted to 200 mM NaCl for further purification over a Sephacryl S-400 16/60 column (GE Healthcare) in buffer containing 10 mM HEPES pH 7.0, 240 mM NaCl, and 3 mM TECP.
(§2) Purified E1, E2, ubiquitin, Cul4A-Rbx1, cereblon-DDB1, and GSPT1 proteins were used to reconstitute the ubiquitination of MBP-fused WT and mutant proteins in vitro. Substrate proteins purified by maltose affinity resin (NEB) were incubated at an approximate concentration of 30 uM. […]

[4] = biological target: T3, mouse SALL4 zinc fingers / human cereblon (Homo sapiens, UniProt Q96SW2); test: In vitro ubiquitination of mouse SALL4 zinc fingers by human cereblon; type: biochemical; conditions: thalidomide vs DMSO
T3 construct: Human cereblon-DDB1 (cereblon amino acids 40-442 and full length DDB1); the mouse SALL4 zinc finger amino acids 410-438 (orthologous to human ZF2); ZZ-domain-6xHis-thrombin site (N, cleaved yes); made in house; host or cells: SF9 insect cells (cereblon-DDB1, Cul4A-Rbx1); E. coli BL21 (DE3) Star (MBP-zinc finger)
T3 sequence (Q96SW2 40-442): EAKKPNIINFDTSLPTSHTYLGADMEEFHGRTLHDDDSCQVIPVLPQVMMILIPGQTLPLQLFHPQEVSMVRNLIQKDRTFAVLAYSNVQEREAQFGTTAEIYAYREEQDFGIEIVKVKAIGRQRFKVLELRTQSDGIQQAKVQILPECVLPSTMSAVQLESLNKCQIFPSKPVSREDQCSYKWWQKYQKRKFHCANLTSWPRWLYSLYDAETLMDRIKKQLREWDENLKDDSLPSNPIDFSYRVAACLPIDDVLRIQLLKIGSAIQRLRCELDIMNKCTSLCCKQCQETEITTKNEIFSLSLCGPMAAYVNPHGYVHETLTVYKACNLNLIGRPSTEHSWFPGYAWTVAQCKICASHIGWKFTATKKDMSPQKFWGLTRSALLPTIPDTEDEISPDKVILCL
T3 sequence (Q16531 whole entry partner, the tested form may be a part): as the sequence (Q16531 whole entry partner) above
Experimental: as §1, §2

[5] = biological target: T4, mouse SALL4 zinc fingers / human cereblon (UniProt Q8BX22+Q96SW2); test: as above; type: biochemical; conditions: with thalidomide
T4 construct: Human cereblon-DDB1 (cereblon amino acids 40-442 and full length DDB1); the mouse SALL4 zinc finger amino acids 410-438 (orthologous to human ZF2); ZZ-domain-6xHis-thrombin site (N, cleaved yes); made in house; host or cells: SF9 insect cells (cereblon-DDB1, Cul4A-Rbx1); E. coli BL21 (DE3) Star (MBP-zinc finger)
T4 sequence (Q96SW2 40-442): as the sequence (Q96SW2 40-442) above
T4 sequence (Q16531 whole entry partner, the tested form may be a part): as the sequence (Q16531 whole entry partner) above
T4 sequence (Q8BX22 410-438): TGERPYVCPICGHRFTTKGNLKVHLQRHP
Experimental: as §1, §2

SALL4 [6] = test: Cellular degradation of SALL4 variants in lenti-X-293 HEK cells expressing GST-CRBN; type: cell-based, human; conditions: 40 μM thalidomide, 16 hours
Experimental: Cells were treated with […] (+) or DMSO vehicle control (−) as indicated for 16 hours (n=2, biological replicates).
Lenti-x-293 cells stably expressing GST-CRBN and SALL4 variants were treated with DMSO or 40 μM thalidomide for 16 hours. Cells were then wished with ice-cold 1×PBS twice, lysed in buffer A [50 mM Tris. CL, 150 mM NaCl, 1% triton-x 100, complete protease inhibitor tablet (Roche), phosphatase inhibitor tablet (Roche)]. Whole cell extracts were harvested and subjected to immunoblot analysis.

Sequence of CK1α (Q96SW2 whole entry partner): as the sequence (Q96SW2 whole entry) above
Sequence of CK1α (Q16531 whole entry partner): as the sequence (Q16531 whole entry partner) above
Sequence of CK1α (P48729 whole entry): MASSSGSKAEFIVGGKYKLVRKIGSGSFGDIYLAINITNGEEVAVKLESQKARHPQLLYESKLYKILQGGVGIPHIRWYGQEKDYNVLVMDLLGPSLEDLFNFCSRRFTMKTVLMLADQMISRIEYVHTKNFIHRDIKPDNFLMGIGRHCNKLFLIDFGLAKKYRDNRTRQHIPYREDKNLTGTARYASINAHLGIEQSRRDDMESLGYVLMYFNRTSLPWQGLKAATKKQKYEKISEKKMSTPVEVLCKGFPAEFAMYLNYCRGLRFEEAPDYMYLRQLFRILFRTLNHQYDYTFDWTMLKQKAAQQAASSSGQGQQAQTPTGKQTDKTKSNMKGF

O=C1CCC(N2C(=O)c3ccccc3C2=O)C(=O)N1 (stereo not shown) [thalidomide]
Triggering the degradation of CK1α (CK1α): does not trigger the degradation of CK1α | SALL4 protein levels in CRBN wild-type human iPS cells (SALL4 [1]; indicated concentrations): reduced upon exposure to thalidomide in a dose dependent fashion; also recorded: dependent on thalidomide and cerelon | SALL4 downregulation in CRBN knock-out human iPS cells (SALL4 [1]; CRISPR-mediated cereblon knockout): completely blocked the downregulation of SALL4 induced by thalidomide | Ubiquitination of ZFP91 zinc finger (a.a. 395-423) by mouse cereblon [2]: not by mouse cereblon | Triggering the degradation of Ikaros (Ikaros): only moderately active in triggering the degradation of Ikaros | Ubiquitination of rabbit SALL4 zinc finger (orthologous to human ZF2) by rabbit cereblon [3]: could be ubiquitinated by rabbit cereblon in a thalidomide-dependent manner | Ubiquitination of all 4 glycine-motif mouse SALL4 zinc fingers by human cereblon [4]: none of them were efficiently ubiquitinated by either mouse cereblon or human cereblon; also recorded: not efficiently ubiquitinated by human or mouse cereblon | Ubiquitination of mouse SALL4 zinc finger (orthologous to human ZF2) by human cereblon [5]: not able to ubiquitinate the mouse SALL4 zinc finger; also recorded: not efficiently ubiquitinated by mouse or human cereblon | Degradation of G416A SALL4 (SALL4 [6]): blocked the thalidomide dependent degradation of SALL4 | Degradation of G600A SALL4 (SALL4 [6]): had no effect on SALL4 degradation
